From US20230029570A1, “Bacillus Strain for Applications in Agriculture, Livestock Health and Environmental Protection” (Locus IP Company, LLC, priority 2020, published 2023)

Key:
Staphylococcus sp. = assay: Reduction in optical density at 600 nm of Staphylococcus sp. cultures treated with cleaning compositions; type: cell-based
Protocol: Cleaning compositions according to embodiments of the subject invention were also tested for their ability to control a Gram-positive Staphylococcus sp. Reduction in optical density at 600 nm (OD) was measured for cultures treated with each of the following compositions: […]

E. coli = assay: Reduction in optical density at 600 nm of E. coli cultures treated with cleaning compositions; type: cell-based; conditions: 250 ppm
Protocol: The lipopeptide mixture produced by B. amy can be used in environmentally-friendly cleaning compositions and to enhance antimicrobial activity of other biosurfactants. Cleaning compositions were tested for their ability to control Gram-negative E. coli. Reduction in optical density at 600 nm (OD) was measured for cultures treated with each of the following compositions: […]

| Substance | OD600 % reduction after 2 hours (Staphylococcus sp.; 250 ppm) | OD600 % reduction after 2 hours (E. coli) | OD600 % reduction after 2 hours (Staphylococcus sp.; 100 ppm) | OD600 % reduction after 2 hours (Staphylococcus sp.; 50 ppm) |
| --- | --- | --- | --- | --- |
| linear SLP butyl ester | 88.1% | 91.5% | – | – |
| linear SLP ethyl ester | – | 89.8% | 98.3% | – |
| linear SLP isopropyl ester | – | 86.4% | – | 91.5% |
